This passage reports inhibition, IC50 and Ratio IC50 results from ChEMBL document CHEMBL3739348, “Novel pyrrole derivatives as selective CHK1 inhibitors: design, regioselective synthesis and molecular modeling” (Medchemcomm, 2015).

Test [1] concerns the target RAC-beta serine/threonine-protein kinase (Homo sapiens) (UniProt P31751). Put plainly: Inhibition of AKT2 (unknown origin) at 30 uM by microfluidic assay relative to control.
The target in test [2] is Ribosomal protein S6 kinase alpha-5 (Homo sapiens) (UniProt O75582). Put plainly: Inhibition of MSK1 (unknown origin) at 30 uM by microfluidic assay relative to control.
Ribosomal protein S6 kinase alpha-5 (Homo sapiens), sequence (O75582 whole entry, looked up): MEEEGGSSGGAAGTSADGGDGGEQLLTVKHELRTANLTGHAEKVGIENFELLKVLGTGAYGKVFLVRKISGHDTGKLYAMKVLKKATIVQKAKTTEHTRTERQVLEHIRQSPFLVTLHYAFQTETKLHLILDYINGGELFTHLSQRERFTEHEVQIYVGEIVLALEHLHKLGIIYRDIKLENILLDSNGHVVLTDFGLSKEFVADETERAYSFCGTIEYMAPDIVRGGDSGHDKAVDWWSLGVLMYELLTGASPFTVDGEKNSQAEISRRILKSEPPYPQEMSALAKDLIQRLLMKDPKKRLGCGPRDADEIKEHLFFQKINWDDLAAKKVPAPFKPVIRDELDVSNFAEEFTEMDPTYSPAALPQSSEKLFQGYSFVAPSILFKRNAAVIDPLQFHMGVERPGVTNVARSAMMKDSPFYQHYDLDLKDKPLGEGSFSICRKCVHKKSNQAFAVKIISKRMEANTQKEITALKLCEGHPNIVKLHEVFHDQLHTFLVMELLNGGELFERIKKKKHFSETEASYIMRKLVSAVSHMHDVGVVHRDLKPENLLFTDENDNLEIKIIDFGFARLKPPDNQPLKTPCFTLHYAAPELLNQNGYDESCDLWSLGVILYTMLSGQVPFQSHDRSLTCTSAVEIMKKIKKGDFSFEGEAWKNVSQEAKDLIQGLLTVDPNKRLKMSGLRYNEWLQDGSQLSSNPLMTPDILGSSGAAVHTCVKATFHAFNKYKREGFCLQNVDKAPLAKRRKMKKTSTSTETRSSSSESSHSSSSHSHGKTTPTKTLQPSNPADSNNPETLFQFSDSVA
The target of test [3] is Ribosomal protein S6 kinase alpha-1 (Homo sapiens) (UniProt Q15418). The test is described as follows: Inhibition of RSK1 (unknown origin) at 30 uM by microfluidic assay relative to control.
Ribosomal protein S6 kinase alpha-1 (Homo sapiens), sequence (Q15418 whole entry): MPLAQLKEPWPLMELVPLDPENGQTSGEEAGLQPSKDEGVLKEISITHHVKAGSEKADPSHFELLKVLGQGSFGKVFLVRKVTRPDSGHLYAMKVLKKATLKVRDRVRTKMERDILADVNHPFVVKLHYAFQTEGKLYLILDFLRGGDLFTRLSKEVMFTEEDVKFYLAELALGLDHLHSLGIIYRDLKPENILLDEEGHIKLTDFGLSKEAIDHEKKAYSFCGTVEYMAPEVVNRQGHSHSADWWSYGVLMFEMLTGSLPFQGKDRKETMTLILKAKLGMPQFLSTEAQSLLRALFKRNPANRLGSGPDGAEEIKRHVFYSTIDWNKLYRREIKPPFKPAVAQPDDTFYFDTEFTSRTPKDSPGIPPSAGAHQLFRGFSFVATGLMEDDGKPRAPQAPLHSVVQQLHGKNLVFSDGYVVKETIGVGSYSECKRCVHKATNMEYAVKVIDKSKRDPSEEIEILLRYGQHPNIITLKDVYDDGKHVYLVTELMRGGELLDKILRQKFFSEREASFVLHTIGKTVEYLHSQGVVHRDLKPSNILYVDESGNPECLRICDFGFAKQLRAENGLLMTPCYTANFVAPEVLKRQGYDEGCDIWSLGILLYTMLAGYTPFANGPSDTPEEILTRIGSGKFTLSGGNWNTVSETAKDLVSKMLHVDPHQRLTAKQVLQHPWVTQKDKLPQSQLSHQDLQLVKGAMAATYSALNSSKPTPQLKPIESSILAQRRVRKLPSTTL
Test [4] deals with T1, MAP kinase-activated protein kinase 5 (Homo sapiens) (UniProt Q8IW41).
T1 sequence (whole entry): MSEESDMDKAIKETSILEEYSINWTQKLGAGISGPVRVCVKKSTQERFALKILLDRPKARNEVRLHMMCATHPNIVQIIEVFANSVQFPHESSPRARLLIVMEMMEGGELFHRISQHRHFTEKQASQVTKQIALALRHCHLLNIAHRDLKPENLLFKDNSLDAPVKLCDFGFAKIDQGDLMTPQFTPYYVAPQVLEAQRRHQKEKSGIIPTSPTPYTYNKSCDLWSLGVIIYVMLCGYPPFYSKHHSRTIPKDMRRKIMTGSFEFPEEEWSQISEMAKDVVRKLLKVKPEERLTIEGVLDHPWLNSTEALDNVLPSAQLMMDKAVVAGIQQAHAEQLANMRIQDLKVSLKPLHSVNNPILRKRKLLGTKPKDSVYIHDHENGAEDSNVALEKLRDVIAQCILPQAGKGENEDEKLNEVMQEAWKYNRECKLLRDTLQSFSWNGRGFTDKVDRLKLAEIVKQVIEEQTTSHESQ
The test is described as follows: Inhibition of MAPKAPK5 (unknown origin) at 30 uM by microfluidic assay relative to control.

The target in test [5] is Mitogen-activated protein kinase 3 (Homo sapiens) (UniProt P27361). Put plainly: Inhibition of Erk1 (unknown origin) at 30 uM by microfluidic assay relative to control.
Mitogen-activated protein kinase 3 (Homo sapiens), sequence (P27361 whole entry): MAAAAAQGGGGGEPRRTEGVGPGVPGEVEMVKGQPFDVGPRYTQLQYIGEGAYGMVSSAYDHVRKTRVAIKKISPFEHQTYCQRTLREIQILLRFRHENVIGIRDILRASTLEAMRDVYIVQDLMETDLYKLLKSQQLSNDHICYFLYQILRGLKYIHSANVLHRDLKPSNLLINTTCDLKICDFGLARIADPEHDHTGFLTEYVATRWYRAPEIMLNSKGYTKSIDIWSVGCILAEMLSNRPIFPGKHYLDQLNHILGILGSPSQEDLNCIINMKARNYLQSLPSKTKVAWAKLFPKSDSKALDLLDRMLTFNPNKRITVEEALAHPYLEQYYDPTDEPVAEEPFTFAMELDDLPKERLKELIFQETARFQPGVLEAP
Test [6] has as its target Mitogen-activated protein kinase 1 (Homo sapiens) (UniProt P28482). Put plainly: Inhibition of Erk2 (unknown origin) at 30 uM by microfluidic assay relative to control.
In test [7] the target is Mitogen-activated protein kinase 14 (Homo sapiens) (UniProt Q16539). Put plainly: Inhibition of p38a (unknown origin) at 30 uM by microfluidic assay relative to control.
Mitogen-activated protein kinase 14 (Homo sapiens), sequence (Q16539 whole entry): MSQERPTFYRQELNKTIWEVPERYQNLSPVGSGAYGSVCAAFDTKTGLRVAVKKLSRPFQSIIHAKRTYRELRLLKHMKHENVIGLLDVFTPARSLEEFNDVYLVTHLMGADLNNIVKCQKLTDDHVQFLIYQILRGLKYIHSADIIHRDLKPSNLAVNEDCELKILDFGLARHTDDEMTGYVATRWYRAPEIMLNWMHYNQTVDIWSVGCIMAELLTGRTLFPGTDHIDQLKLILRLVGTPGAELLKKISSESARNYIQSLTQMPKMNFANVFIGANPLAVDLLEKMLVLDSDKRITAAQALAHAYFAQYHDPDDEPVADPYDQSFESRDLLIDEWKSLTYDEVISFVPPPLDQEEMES
The target in test [8] is Tyrosine-protein kinase ABL1 (Homo sapiens) (UniProt P00519). The test is described as follows: Inhibition of ABL (unknown origin) at 30 uM by microfluidic assay relative to control.
Tyrosine-protein kinase ABL1 (Homo sapiens), sequence (P00519 whole entry): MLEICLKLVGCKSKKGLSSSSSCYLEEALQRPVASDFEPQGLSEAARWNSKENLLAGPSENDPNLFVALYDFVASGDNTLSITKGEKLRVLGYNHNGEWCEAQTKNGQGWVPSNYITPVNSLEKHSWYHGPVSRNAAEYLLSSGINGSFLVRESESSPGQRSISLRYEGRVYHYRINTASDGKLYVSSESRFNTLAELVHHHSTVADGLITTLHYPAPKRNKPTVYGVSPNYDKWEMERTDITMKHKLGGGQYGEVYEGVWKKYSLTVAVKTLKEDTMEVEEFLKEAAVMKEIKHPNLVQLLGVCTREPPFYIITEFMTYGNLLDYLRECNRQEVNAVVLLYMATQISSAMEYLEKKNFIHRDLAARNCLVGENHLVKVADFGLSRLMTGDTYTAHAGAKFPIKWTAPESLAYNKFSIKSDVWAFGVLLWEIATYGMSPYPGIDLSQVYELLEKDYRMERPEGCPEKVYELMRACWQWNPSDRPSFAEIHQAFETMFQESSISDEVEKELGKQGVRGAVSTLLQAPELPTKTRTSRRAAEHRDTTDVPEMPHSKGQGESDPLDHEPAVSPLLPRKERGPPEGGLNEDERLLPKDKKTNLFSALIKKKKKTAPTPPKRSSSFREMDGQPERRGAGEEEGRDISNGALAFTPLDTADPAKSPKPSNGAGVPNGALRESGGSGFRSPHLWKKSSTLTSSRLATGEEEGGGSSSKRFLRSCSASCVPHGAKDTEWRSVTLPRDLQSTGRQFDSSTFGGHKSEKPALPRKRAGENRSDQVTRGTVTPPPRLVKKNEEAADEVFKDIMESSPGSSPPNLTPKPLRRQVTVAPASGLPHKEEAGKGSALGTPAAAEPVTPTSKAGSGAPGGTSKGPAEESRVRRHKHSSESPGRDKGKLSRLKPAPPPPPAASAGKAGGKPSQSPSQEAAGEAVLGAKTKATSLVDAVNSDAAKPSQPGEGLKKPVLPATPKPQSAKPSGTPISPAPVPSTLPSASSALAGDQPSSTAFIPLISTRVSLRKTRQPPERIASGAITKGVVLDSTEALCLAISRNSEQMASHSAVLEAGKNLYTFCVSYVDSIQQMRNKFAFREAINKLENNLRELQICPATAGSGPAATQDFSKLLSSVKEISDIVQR
Test [9] deals with Vascular endothelial growth factor receptor 2 (Homo sapiens, UniProt P35968). The test is described as follows: Inhibition of VEGFR-2 (unknown origin) at 30 uM by microfluidic assay relative to control.
The target in test [10] is Epidermal growth factor receptor (Homo sapiens, UniProt P00533). The test is described as follows: Inhibition of EGFR (unknown origin) by microfluidic assay relative to control.
Test [11] is filed under the species Homo sapiens. The test is described as follows: Selectivity index, ratio of IC50 for VEGFR-2 (unknown origin) to IC50 for CHK1 (unknown origin).
The species entered for test [12] is Homo sapiens. The test is described as follows: Selectivity index, ratio of IC50 for EGFR (unknown origin) to IC50 for CHK1 (unknown origin).

Mitogen-activated protein kinase 1 (Homo sapiens), sequence (P28482 whole entry): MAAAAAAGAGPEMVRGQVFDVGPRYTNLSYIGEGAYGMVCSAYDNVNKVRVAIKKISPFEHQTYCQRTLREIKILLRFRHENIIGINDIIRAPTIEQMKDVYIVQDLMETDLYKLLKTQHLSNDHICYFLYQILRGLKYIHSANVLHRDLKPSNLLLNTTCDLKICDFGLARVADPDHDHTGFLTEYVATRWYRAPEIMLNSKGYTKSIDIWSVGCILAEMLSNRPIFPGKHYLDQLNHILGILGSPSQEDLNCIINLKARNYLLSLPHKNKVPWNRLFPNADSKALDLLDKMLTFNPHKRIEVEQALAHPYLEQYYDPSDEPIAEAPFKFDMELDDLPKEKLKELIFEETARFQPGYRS
RAC-beta serine/threonine-protein kinase (Homo sapiens), sequence (P31751 whole entry): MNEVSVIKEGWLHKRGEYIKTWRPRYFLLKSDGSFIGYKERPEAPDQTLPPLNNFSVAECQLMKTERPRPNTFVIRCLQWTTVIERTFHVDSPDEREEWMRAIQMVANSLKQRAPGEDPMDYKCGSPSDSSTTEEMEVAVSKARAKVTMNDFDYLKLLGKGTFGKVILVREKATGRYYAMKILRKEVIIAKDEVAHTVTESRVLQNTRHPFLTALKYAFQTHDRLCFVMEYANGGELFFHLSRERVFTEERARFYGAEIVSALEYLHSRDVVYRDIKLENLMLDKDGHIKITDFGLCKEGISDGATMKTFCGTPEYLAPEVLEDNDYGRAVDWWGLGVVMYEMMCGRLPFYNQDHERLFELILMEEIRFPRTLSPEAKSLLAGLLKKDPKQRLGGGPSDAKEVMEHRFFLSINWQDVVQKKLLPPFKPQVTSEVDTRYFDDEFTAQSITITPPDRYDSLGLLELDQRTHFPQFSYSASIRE

The term inhibition denotes how much of the control response was suppressed. High values mean a strong effect, low ones a weak effect. In general, IC50 refers to the midpoint of a concentration-inhibition curve. Read a low IC50 as inhibition by little substance. Regarding `Cc1[nH]c(-c2ccccc2)c(-c2ccccc2)c1C(=O)c1coc2c1cc(O)c1ccccc12`, the inhibition is 56% in test [1]; 34% in [2]; 4% in [3]; 54% in [4]; 3% in test [5]; 21% in test [6]. Besides, the inhibition turned out to be 21% in [7], 4% in test [8] and 100% in test [9]. Moreover, the IC50 in test [10] is 5.1 µM. For the same molecule, the Ratio IC50 in test [11] was 14.7; in test [12], 16.4.
Take `Cc1[nH]c(-c2ccccc2)c(-c2ccccc2)c1-c1nnc(O)c2nn(-c3ccccc3)cc12`: the inhibition in test [1] was determined as 56%; in test [2], 34%; in test [3] it was 36%; in [4], 32%; in [5] it was 8%; in test [6], 23%. Besides, the inhibition in test [7] stood at 2%; in test [8] it was 5%; in test [9], 100%.
Regarding `Cc1[nH]c(-c2ccccc2)c(-c2ccccc2)c1C(=O)c1cn(-c2ccccc2)nc1C(=O)Nc1ccccc1`, the inhibition came to 86% in test [1]; 87% in test [2]; 2% in test [3]; 54% in test [4]; 8% in test [5]; 24% in test [6]. In addition, the inhibition in [7] was found to be 13%; in [8], 32%; in [9], 100%.
